Key:
dendritic cells = test: Induction of apoptosis of peptide-loaded dendritic cells by peptide-expanded NKT cells (annexin V binding); format: cell-based, C57BL/6 mice; conditions: NKT cells expanded with the peptide; FIG. 1, means of 2 experiments and SEM; negative control dendritic cells with no peptides
Procedure: Antigen-presenting cells (APC) are prepared from C57BL/6 mice and loaded with a peptide encompassing a CD1d-restricted NKT cell peptide epitope of hexon-6 capsid protein of adenovirus 5 vector used for gene therapy or gene vaccination.
Dendritic cells loaded with one of these peptides are then incubated with naïve CD62L+ CD4+ cells obtained from the spleen. After several cycles of stimulation, the capacity of NKT cells to induce apoptosis of the corresponding APC is measured and a comparison is established between peptides for their capacity to induce apoptosis.
The results shown in FIG. 1 (means of 2 experiments and SEM) indicate that NKT cells expanded with peptide of either SEQ. ID NO: 1 or SEQ. […] Negative controls include dendritic cells incubated with no peptides.

WEHI 231 cells = test: Induction of apoptosis of B cell line WEHI 231 by peptide-expanded NKT cells; format: cell-based, BALB/c mice; conditions: WEHI 231 B cell line (H-2d) as APC; NKT cells elicited with the peptide; FIG. 3, means of 2 experiments and SEM
Source text: FIG. 3 depicts similar experiments (means of 2 experiments and SEM) but using a B cell line (WEHI 231 cells). WEHI cells are derived from BALB/c mice (H-2d) and not from C57BL/6 mice (H-2b). The histo-incompatibility between the 2 strains prevents presentation of peptides designed for C57BL/6 mice by BALB/c MHC class II, but not presentation by the non-polymorphic CD1d molecule. […] ID NO: 1 or SEQ. ID NO: 2.

APCs = test: Capacity of NKT cells to induce apoptosis of APCs, peptide with modified CD1d binding motif; format: cell-based; conditions: W substituted at position P7 of the CD1d binding motif
Procedure: Modification of the core sequence of the CD1d binding motif is carried out by introducing a hydrophobic amino acid at position P7 of the motif and generates the peptide IAFRDN FIGLMYW [SEQ. ID NO: 3], in which W at position 7 increases the binding to the hydrophobic pocket of CD1d.

| Sequence | apoptosis of dendritic cells, as measured by annexin V binding (dendritic cells) | induction of apoptosis (WEHI 231 cells) | capacity of NKT cells to induce apoptosis of APCs (APCs) |
| --- | --- | --- | --- |
| IAFRDNFIGLMYY (fragment of hexon 6 capsis protein) [SEQ. ID NO: 1, amino acid residues 327 to 339 of the hexon-6 protein of adenovirus 5] | elicit apoptosis of dendritic cells | significant induction of apoptosis |  |
| IAFRDNFIGLMYW (modified version of hexon 6 capsid protein) [SEQ. ID NO: 3] |  |  | further boosts the capacity of NKT cells to induce apoptosis of APCs |
| CHGCGGFIGLMYY (redutase motif + hexon 6 capsid protein) [SEQ. ID NO: 2, residues 333 to 339 of the hexon-6 protein containing a thioreductase motif (CxxC) within flanking residues (GG)] | elicit apoptosis of dendritic cells | significant induction of apoptosis |  |

Source: patent US20160250255A1, “METHODS FOR INDUCTION OF ANTIGEN-SPECIFIC REGULATORY T CELLS” (IMCYSE SA, priority 2013, published 2016)
